pKi: −log10 of the molar value. Where two headings read alike, the source gives them in different places.
Legend:
[1] = biological target: T1, human dopamine D2 receptor subtype (Homo sapiens, UniProt P14416); assay: [3H]-Spiperone binding, displacement from human dopamine D2 receptor subtype expressed in clonal cell lines
T1 construct: expressed in transfected cells

rats = assay: Sedation: spontaneous motor activity of rats in novel cages with photocells (number of cage crossings); assay type: in vivo; settings: rat
From the text: Representative compounds according to the invention have been tested for their effects on spontaneous motor activity occasioned by placing rats in novel cages equipped with photocells in order to determine the number of cage crossings. This is an art-recognised model of the sedation potential of a given test compound.

rat = assay: Extrapyramidal disorders: apomorphine-induced stereotypy in the rat; assay type: in vivo
From the text: 2. Extrapyramidal Disorders
Representative compounds according to the invention have been tested for their effect on apomorphine-induced stereotypy in the rat. This is an art-recognised model of the potential to induce extrapyramidal side-effects.

[2] = biological target: T2, human dopamine D4 receptor subtype (Homo sapiens, UniProt P21917); assay: [3H]-Spiperone binding, displacement from human dopamine D4 receptor subtype expressed in clonal cell lines
T2 sequence (P21917 1-419): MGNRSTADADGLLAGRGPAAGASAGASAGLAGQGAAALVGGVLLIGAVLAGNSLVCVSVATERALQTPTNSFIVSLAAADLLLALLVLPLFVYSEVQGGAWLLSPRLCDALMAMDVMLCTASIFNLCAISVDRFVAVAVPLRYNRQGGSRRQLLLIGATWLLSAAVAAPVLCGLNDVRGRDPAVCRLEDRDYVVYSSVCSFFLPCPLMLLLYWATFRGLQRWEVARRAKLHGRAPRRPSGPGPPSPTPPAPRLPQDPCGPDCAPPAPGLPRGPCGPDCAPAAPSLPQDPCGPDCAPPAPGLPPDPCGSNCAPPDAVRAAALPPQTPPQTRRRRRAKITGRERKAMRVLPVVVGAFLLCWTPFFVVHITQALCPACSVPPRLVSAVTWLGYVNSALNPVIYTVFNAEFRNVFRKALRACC

T1 sequence (P14416 whole entry): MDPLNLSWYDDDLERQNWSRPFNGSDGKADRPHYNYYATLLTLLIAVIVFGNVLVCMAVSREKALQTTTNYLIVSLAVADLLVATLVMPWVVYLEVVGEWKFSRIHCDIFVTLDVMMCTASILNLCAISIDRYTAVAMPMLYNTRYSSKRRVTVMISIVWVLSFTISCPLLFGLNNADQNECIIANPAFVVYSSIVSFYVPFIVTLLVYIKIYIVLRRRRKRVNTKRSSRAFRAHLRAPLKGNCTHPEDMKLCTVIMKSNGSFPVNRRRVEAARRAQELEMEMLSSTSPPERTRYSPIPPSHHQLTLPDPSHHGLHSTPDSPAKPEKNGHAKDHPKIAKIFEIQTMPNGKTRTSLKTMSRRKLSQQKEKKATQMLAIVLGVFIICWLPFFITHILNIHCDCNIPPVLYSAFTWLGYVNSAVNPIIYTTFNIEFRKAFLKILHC

With `Clc1ccc(N2CCN(Cc3c[nH]c4ncccc34)CC2)cc1` [Example 5, 3-(4-[4-Chlorophenyl]piperazin-1-yl)methyl-1H-pyrrolo[2,3-b]pyridine] the pKi [1] was 6.07, the “sedation (spontaneous motor activity)” value (rats; doses of up to 10-30 mg/kg) was “no evidence for sedation” and the “potential to induce extrapyramidal side-effects (apomorphine-induced stereotypy)” value (rat; doses up to 1.0 mg/kg) was “no potential to induce the extrapyramidal side-effects”.
`COc1ccc(N2CCN(Cc3c[nH]c4ncccc34)CC2)cc1` [Example 2, 3-(4-[4-Methoxyphenyl]piperazin-1-yl)methyl-1H-pyrrolo[2,3-b]pyridine] was tested, and the pKi ([2]; human D4, clonal cell line membranes, 0.2 nM [3H]-spiperone) was 8.89, the “D4 :D2 ratio” value ([2]; ratio of Ki values, selectivity for D4 over D2, 60 min) was “greater than 1150” and the pKi ([1]; human D2, clonal cell line membranes, 0.2 nM [3H]-spiperone, read-out: Ki value for the D2 subtype) was under 5.82.
For `O=C(CCCN1CCC(O)(c2ccc(Cl)cc2)CC1)c1ccc(F)cc1` [haloperidol, reference compound], the “sedation (spontaneous motor activity)” value (rats; dose of 1 mg/kg) was “marked sedation” and the “potential to elicit extrapyramidal side-effects (apomorphine-induced stereotypy)” value (rat; doses of 0.5 and 1.0 mg/kg) was “significant potential to elicit extrapyramidal side-effects”.

Source: patent publication US5576319A, “Pyrrolo-pyridine derivatives” (Merck, Sharp & Dohme Ltd., priority 1994, dated 1996)
